Data published in the supplement of paper PMC11451515.

Test system: P12-Ichikawa
Assay: cell viability relative to DMSO control; higher = less cytotoxic
Details: 48 h
Procedure, shortened: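 Viability values are per-plate percentages of DMSO wells, with background from cell-free wells. Library compounds in DMSO were pin-dosed, in an 11-point threefold series from 47 μM to 0.79 nM, onto NOMO1 or SEM (500 cells/well) or P12-Ichikawa (1000 cells/well) leukemia cells in 1536-well plates (5 μl). Those cells had been adapted for at least four passages in each medium, and CellTiter-Glo One luminescence was read after 48 h at 37°C.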

[1] = HPLM + 10% dialyzed FBS, 0.000781 µM
[2] = HPLM + 10% dialyzed FBS, 0.00234 µM
[3] = HPLM + 10% dialyzed FBS, 0.00702 µM
[4] = HPLM + 10% dialyzed FBS, 0.0211 µM
[5] = HPLM + 10% dialyzed FBS, 0.0632 µM
[6] = HPLM + 10% dialyzed FBS, 0.19 µM
[7] = HPLM + 10% dialyzed FBS, 0.569 µM
[8] = HPLM + 10% dialyzed FBS, 1.71 µM
[9] = HPLM + 10% dialyzed FBS, 5.12 µM
[10] = HPLM + 10% dialyzed FBS, 15.4 µM
[11] = HPLM + 10% dialyzed FBS, 46.1 µM
[12] = RPMI 5 mM glucose + 10% FBS, 0.000781 µM
[13] = RPMI 5 mM glucose + 10% FBS, 0.00234 µM
[14] = RPMI 5 mM glucose + 10% FBS, 0.00702 µM
[15] = RPMI 5 mM glucose + 10% FBS, 0.0211 µM
[16] = RPMI 5 mM glucose + 10% FBS, 0.0632 µM
[17] = RPMI 5 mM glucose + 10% FBS, 0.19 µM
[18] = RPMI 5 mM glucose + 10% FBS, 0.569 µM
[19] = RPMI 5 mM glucose + 10% FBS, 1.71 µM
[20] = RPMI 5 mM glucose + 10% FBS, 5.12 µM
[21] = RPMI 5 mM glucose + 10% FBS, 15.4 µM
[22] = RPMI 5 mM glucose + 10% FBS, 46.1 µM
[23] = RPMI 5 mM glucose + 10% dialyzed FBS, 0.000781 µM
[24] = RPMI 5 mM glucose + 10% dialyzed FBS, 0.00234 µM
[25] = RPMI 5 mM glucose + 10% dialyzed FBS, 0.00702 µM
[26] = RPMI 5 mM glucose + 10% dialyzed FBS, 0.0211 µM
[27] = RPMI 5 mM glucose + 10% dialyzed FBS, 0.0632 µM
[28] = RPMI 5 mM glucose + 10% dialyzed FBS, 0.19 µM
[29] = RPMI 5 mM glucose + 10% dialyzed FBS, 0.569 µM
[30] = RPMI 5 mM glucose + 10% dialyzed FBS, 1.71 µM
[31] = RPMI 5 mM glucose + 10% dialyzed FBS, 5.12 µM
[32] = RPMI 5 mM glucose + 10% dialyzed FBS, 15.4 µM
[33] = RPMI 5 mM glucose + 10% dialyzed FBS, 46.1 µM

Row | SMILES | cell viability [1] [%] | cell viability [2] [%] | cell viability [3] [%] | cell viability [4] [%] | cell viability [5] [%] | cell viability [6] [%] | cell viability [7] [%] | cell viability [8] [%] | cell viability [9] [%] | cell viability [10] [%] | cell viability [11] [%] | cell viability [12] [%] | cell viability [13] [%] | cell viability [14] [%] | cell viability [15] [%] | cell viability [16] [%] | cell viability [17] [%] | cell viability [18] [%] | cell viability [19] [%] | cell viability [20] [%] | cell viability [21] [%] | cell viability [22] [%] | cell viability [23] [%] | cell viability [24] [%] | cell viability [25] [%] | cell viability [26] [%] | cell viability [27] [%] | cell viability [28] [%] | cell viability [29] [%] | cell viability [30] [%] | cell viability [31] [%] | cell viability [32] [%] | cell viability [33] [%]
1 | CCC1=C2CN3C(=O)\C4=C(/C=C3/C2=NC5=CC=C(O)C=C15)[C@@](O)(CC)C(=O)OC4 | 97 | 95 | 33.6 | 14.5 | 9.38 | 6.95 | 6.95 | 4.6 | 5.03 | 4.34 | 4.16 | 93.6 | 91.9 | 28.2 | 10.6 | 8.05 | 6.33 | 6.06 | 5.12 | 4.73 | 4.49 | 4.85 | 98.3 | 83.8 | 30.2 | 15.1 | 11 | 7.31 | 6.37 | 5.25 | 5.83 | 5.8 | 5
2 | CON(C)C(=O)N1\N=C(/S[C@]1(CCCN)C2=CC=CC=C2)C3=CC(=CC=C3F)F | 46 | 13.4 | 12.4 | 12.8 | 13 | 12.8 | 14.2 | 12.1 | 12.7 | 11.2 | 13.1 | 12 | 17.2 | 17.5 | 16.2 | 16.8 | 17.7 | 16.6 | 13.6 | 14.2 | 12.2 | 11.2 | 24.8 | 28 | 21.3 | 21.4 | 22.5 | 24.6 | 21 | 22.4 | 19.1 | 18.3 | 19.9
3 | O=C1N\N=C(\C[C@@H]2CCN(C2)C(=O)C3CC3)N1C4=CC=C(C=C4)C5=CC=C6OC=CC6=C5 | 79.6 | 82 | 83.2 | 86.1 | 91.9 | 81.5 | 81 | 88.7 | 83.7 | 83.2 | 80.3 | 76.3 | 77 | 77.1 | 78.3 | 87.6 | 75.5 | 73.6 | 78.8 | 82.1 | 78.2 | 83.9 | 83.3 | 79.8 | 81.6 | 84 | 93.6 | 84.5 | 91.1 | 80.6 | 82.9 | 86.3 | 85.7
4 | CCN(CCO)CCCC(C)Nc1ccnc2cc(Cl)ccc12 (stereo not drawn) | 99.5 | 114 | 114 | 111 | 110 | 105 | 75.6 | 112 | 57.5 | 14.7 | 9.45 | 102 | 110 | 110 | 103 | 108 | 106 | 74.6 | 105 | 66.2 | 27.3 | 10.7 | 102 | 108 | 106 | 117 | 112 | 103 | 90.7 | 102 | 3.75 | 56.4 | 15.4
5 | NC(=O)c1ncn([C@@H]2O[C@H](CO)[C@@H](O)[C@H]2O)c1N | 120 | 124 | 120 | 119 | 122 | 121 | 122 | 117 | 115 | 115 | 104 |  |  |  |  |  |  |  |  |  |  |  |  |  |  |  |  |  |  |  |  |  | 
6 | C[C@]12CCC(=O)C(O)=C1CC[C@@H]1[C@@H]2CC[C@]2(C)C(=O)CC[C@@H]12 | 122 | 125 | 122 | 119 | 119 | 122 | 128 | 117 | 120 | 111 | 104 |  |  |  |  |  |  |  |  |  |  |  | 112 | 124 | 132 | 121 | 121 | 115 | 130 | 126 | 101 | 108 | 104
7 | C=C1C(=O)O[C@@H]2[C@H]3O[C@]3(C)CC/C=C(\C)CC[C@@H]12 | 106 | 104 | 114 | 114 | 119 | 124 | 122 | 79.6 | 5.39 | 2.97 | 2.95 | 103 | 109 | 117 | 117 | 127 | 127 | 125 | 101 | 13.5 | 3.52 | 2.86 | 105 | 112 | 118 | 125 | 127 | 123 | 121 | 91.8 | 5.63 | 2.98 | 2.57
8 | CNC(=O)c1ccccc1Sc1ccc2c(/C=C/c3ccccn3)n[nH]c2c1 | 116 | 111 | 107 | 115 | 112 | 109 | 106 | 84.5 | 77.8 | 17.9 | 14 | 117 | 116 | 126 | 116 | 110 | 97.2 | 108 | 87 | 78.9 | 28 | 21.6 |  |  |  |  |  |  |  |  |  |  | 
9 | COc1cc([C@@H]2c3cc4c(cc3[C@@H](O[C@@H]3O[C@@H]5CO[C@@H](C)O[C@H]5[C@H](O)[C@H]3O)[C@H]3COC(=O)[C@H]23)OCO4)cc(OC)c1O | 87.1 | 89.5 | 90.2 | 80.9 | 76.8 | 85.8 | 73.1 | 12.1 | 3.56 | 1.85 | 6.17 | 79.5 | 86.9 | 78.2 | 76 | 83.6 | 67.6 | 51.7 | 6.56 | 3.5 | 3.55 | 4.21 | 73.4 | 78.2 | 84.7 | 78.1 | 78.7 | 74.1 | 63.9 | 8.76 | 4.69 | 3.79 | 4.42
